Experimental data published in US7078059B2, “Treatment of bone diseases” (Shire Holdings AG, priority 2000, dated 2006).

Legend:
[1] = system: osteoclasts cultured on bone slices; experiment: In vitro bone resorption assay (osteoclasts on bovine bone slices, CrossLaps); format: cell-based, rat; settings: LA number = ng/ml lanthanum; lanthanum (III) ion = any of the concentrations tested (100-15000 ng/ml); bafilomycin Al 10 nM
Excerpt: The method of osteoclast culture on bone slices was originally described by Boyde et al. (1984) and by Chambers et al. (1984). For cell culture, we used a method slightly modified from the original methods (Lakkakorpi et al. 1989, Lakkakorpi and Väänänen, 1991). The rate of bone resorption in the cultures was originally determined by counting the number of resorption pits on each bone or dentine slice using a microscope with phase contrast objectives (Sundquist et al. 1990). Later, the pits were visualized using Wheat Germ Agglutinin lectin that specifically binds to the resorbed area in bone (Selander et al. 1994), making it possible to quantify the total resorbed area using a microscope and computer-assisted image analysis system (Laitala and Väänänen 1994, Hentunen et al. 1995). We used a commercially available method (CrossLaps for cultures, Osteometer Biotech, Herlev, Denmark) to detect the amount of collagen cross-links released into the culture medium as an index of the bone resorption rate (Bagger et al., 1999).
The study protocol uses a method where osteoclasts are cultured on bone slices and allowed to resorb bone. The system is ideal for determining the effect of drug candidates on the bone resorbing activity of osteoclasts. Drug candidates are added into the cell cultures at the beginning of the culture period, and the osteoclasts allowed to resorb bone for 3 days. The amount of bone resorbed during the culture period is determined and compared to the amount of bone resorbed in control cultures (those cultured in the absence of drug candidates).
Transverse 0.1 mm thick slices of cortical bone were cut from the diaphysis of fresh bovine femurs (Atria Slaughterhouse, Oulu, Finland) using a low-speed diamond saw, cleaned by ultrasonication in multiple changes of sterile distilled water, and stored at 4° C. before use. Long bones were removed from 1-day-old rat pups killed by decapitation. […] The resulting suspension of dispersed cells and bone fragments was agitated using a plastic pipette. Larger fragments were allowed to sediment for a few seconds and the supernatant was seeded onto the bone slices pre-wetted in the medium. After a settling period of 30 minutes at 37° C., the bone slices were washed by dipping in fresh medium, and then transferred to wells in 24-well culture dishes containing osteoclast culture medium. The bone slices were incubated in a humidified atmosphere of 95% air and 5% carbon dioxide at 37° C. for 72 hours.
After the culture period, the amount of bone resorption was determined by measuring the amount of collagen cross-links released into the culture medium using a commercial kit (CrossLaps for cultures, Osteometer Biotech) according to the manufacturer s instructions. The number of osteoclasts in each culture was determined by microscopic counting of the amount of TRAP-positive multinuclear cells, and the results are given as the number of collagen cross-links released per one osteoclast.
In the bone resorption assay, the amount of medium CrossLaps (nM) released into the culture medium was determined and the number of osteoclasts in the corresponding cultures calculated. The medium CrossLaps amounts were divided with the osteoclast numbers in the corresponding cultures, and the results are given on Table 1 as relative medium CrossLaps amounts per osteoclasts. The relative values were obtained by dividing each individual value with the mean value of the baseline group.

[2] = system: mouse bone marrow derived osteoprogenitor cells; experiment: In vitro osteoblast differentiation assay (cellular alkaline phosphatase); format: cell-based; settings: LA number = ng/ml lanthanum; lanthanum (III) ion = 100-15000 ng/ml; 17-estradiol 10^−10 M
Excerpt: We have established a culture model in which mouse bone marrow derived osteoprogenitor cells first proliferate and then differentiate to osteoblasts capable of forming mineralized bone nodules (Qu et al. 1998, Qu et al. 1999). We confirmed this by following the expression of several markers of the osteoblastic phenotype and by studying the morphology of cultures at light and electron microscopic level. […] Thus, this culture system fulfills requirements of an in vitro model useful for studying differentiation of osteoprogenitor cells into bone synthesizing osteoblasts. […] Animals were killed by cervical dislocation. Both femora were removed and the soft tissues were detached aseptically. Metaphyses from both ends were cut off and bone marrow cells were collected by flushing the diaphysis with culture medium: phenol red-free-α-modified essential medium (α-MEM (Gibco BRL, Paisley, UK)). […] The cells were cultured for 6 days and half of the media […] days. […] Cells were washed with warm PBS and adherent cells were detached using trypsin-EDTA. […] The test substances were added at the beginning of the secondary culture without estrogen, and every time when the medium was changed. The number of osteoblasts formed was determined by measuring cellular alkaline phosphatase (ALP) activity in the culture. […] Louis, Mo., USA), and overnight freezing. ALP activity was determined colorimetrically using p-nitrophenylphosphate as substrate at pH 9.7 and determining the optical density at 405 nm. In parallel, protein contents of the wells were determined by the BIO-RAD protein assay, and the specific ALP activity is expressed as units/mg protein. […] Osteoblast differentiation was determined by measuring cellular alkaline phosphatase (ALP) activities and total protein amounts from cell lysates. The ALP activities were divided with the corresponding protein amounts to obtain specific activities of ALP. The results are shown as relative specific activities obtained by dividing each individual value with the mean value of the baseline group.

mature osteoblasts = experiment: In vitro bone formation assay (calcium deposition into bone nodules); format: cell-based, mouse; settings: LA number = ng/ml lanthanum; lanthanum (III) / lanthanum (III) ion = all concentrations tested, 100 to 15,000 ng/ml; 17-estradiol 10^−10M
Procedure: The activity of mature osteoblasts can be determined by quantifying their ability to form mineralized bone matrix. This is done by demineralizing the formed bone matrix, and determining the amount of calcium released. Thus, this culture system fulfills requirements of an in vitro model useful for studying the bone formation activity of mature osteoblasts. […] At the end of the culture, the amount of calcium deposited during the culture period was determined, and the amount of bone formation (calcium deposition) calculated. […] Extracts of 50 μl were complexed with 1 ml determined o-cresol-phthalein-complexon. The colorimetric reaction was determined at 570 nm in a spectrophotometer. Absolute calcium concentrations were determined by comparison with a calibrated standard provided by the vendor. In this study, the effect of lanthanum carbonate on bone formation was tested. […] The amount of bone formation was determined by measuring the amount of calcium deposited into bone nodules formed by mature osteoblasts. The results are shown as the amount of calcium released (mmol/L) from the bone nodules after HCl extraction. The baseline values are too low to show the results using relative amounts as was done in the other assays.

Row | SMILES | Effect on bone resorption / bone resorbing activity of mature osteoclasts, in words [1] | Effect on osteoblast differentiation, in words [2] | Effect on bone formation activity of mature osteoblasts, in words (mature osteoblasts)
1 | CO/C1=C\C(C)=C\[C@@H](C)[C@@H](O)[C@@H](C)C/C(C)=C/C=C/[C@H](OC)[C@@H]([C@@H](C)[C@@H](O)[C@H](C)[C@@]2(O)C[C@@H](O)[C@H](C)[C@@H](C(C)C)O2)OC1=O [Bafilomycin Al, reference compound] | completely inhibited bone resorption |  | 
2 | C[C@]12CC[C@@H]3c4ccc(O)cc4CC[C@H]3[C@@H]1CC[C@@H]2O [17-β estradiol, reference compound] |  | activated osteoblast differentiation significantly | activated bone formation significantly
